Results on 1 compound are retold here after patent publication US20130338092A1, “COMPOUNDS AND METHODS FOR TARGETING LEUKEMIC STEM CELLS” (The Broad Institute, Inc., priority 2011, published 2013).

Entries after “also recorded” stand apart in the source; their conditions may differ.

Assay [1] deals with leukemic cobblestoning on pretreated OP9 stromal cells. Kind of assay: Stromal pretreatment screen on OP9 stroma. It is filed as cell-based, murine. The settings on record: compound on OP9 stroma for 3 days, washed before LSC plating. The procedure: OP9 cells were plated as in the primary screen. 24 hours later compounds were added to the stromal cultures and the plates were incubated for three days. […] As before, the plates were imaged after 6 days of coculture, and the level of cobblestoning was quantified. Any inhibition of cobblestoning observed under these modified assay conditions would presumably be due to the activity of the compound on the niche, and would allow the analysis of cell non-cell-autonomous mechanisms of leukemia growth inhibition.

Assay [2] deals with primary leukemia cells. The assay is described as follows: Gene expression profiling with GSEA. It is filed as cell-based, murine. The settings on record: 5 μM, 6 hours in suspension. The procedure: To elucidate potential cell-autonomous effects of BRD7116, primary leukemia cells were exposed to either 5 μM BRD7116 or DMSO vehicle for 6 hours in suspension in IMDM (12440053, Invitrogen) with 10% FBS, 10 ng/ml mIL3, and 1× Pen-Strep.
RNA was isolated using a trizol-chloroform protocol or with a Qiagen RNeasy kit (74104, Qiagen). Total RNA from the samples was normalized to 20 ng/μl and the Illumina® TotalPrep™-96 RNA Amplification Kit (Applied Biosystems, PN #4393543) protocol was used for amplification in a semi automated process. The total RNA underwent reverse transcription to synthesize first-strand cDNA. This cDNA was then converted into a double-stranded DNA template for transcription. In vitro transcription synthesized aRNA and incorporated a biotin-conjugated nucleotide. […] Illumina's BeadArray Reader was used to measure the fluorescence intensity at each addressed bead location.
Gene-expression profiles were generated by using mouse ref-8 DNA microarray (Illumina) according to manufacturer's instruction. […] The resulting data was analyzed using Gene Set Enrichment Analysis method (Subramanian, A., Tamayo, P., Mootha, V. K., Mukherjee, S., Ebert, B. L., Gillette, M. A., Paulovich, A., Pomeroy, S. L., Golub, T. R., Lander, E. S., et al. (2005). Proc Natl Acad Sci USA 102, 15545-15550.). […]

Consider `CC1(C)C(C(=O)Nc2ccc(S(=O)(=O)c3ccc(NC(=O)C4C(C)(C)C4(C)C)cc3)cc2)C1(C)C` [BRD7116], for which the “leukemic cobblestoning after stromal pretreatment” value in assay [1] was “decreased leukemic cobblestoning; also recorded: partially recapitulated the leukemia cobblestone inhibition”. Further, the “gene expression changes (GSEA)” value in assay [2] was “induces an AML differentiation program; also recorded: induction of an AML differentiation program”.
